The values below come from patent US20090163586A1, “Bis-(Sulfonylamino) Derivatives in Therapy 205” (AstraZeneca AB, priority 2007, published 2009).

For orientation: IC50 means the concentration that gives 50% inhibition.

This test deals with T1, human mPGES-1 (Homo sapiens, UniProt O14684).
T1 sequence (O14684 1-152): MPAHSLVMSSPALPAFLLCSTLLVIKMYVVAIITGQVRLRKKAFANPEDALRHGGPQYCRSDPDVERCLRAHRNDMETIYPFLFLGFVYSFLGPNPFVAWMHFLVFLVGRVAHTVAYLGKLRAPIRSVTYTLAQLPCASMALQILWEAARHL
Kind of test: Microsomal prostaglandin E synthase biochemical assay. The note with it: microsome preparation containing human mPGES-1; PGH2 10.8 μM, GSH 2.5 mM, pH 6.8; PGE2 by HTRF; average of at least n=2. An outline of the steps: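 Human mPGES-1 microsomes at 2 μg/mL were pre-incubated 15 min with compound (60 μM to 0.002 μM) in 50 mM potassium phosphate pH 6.8 with 2.5 mM GSH. The reaction was started with 10.8 μM PGH2 and stopped after 1 minute with acidic ferric chloride/citrate. PGE2 was quantified by HTRF; IC50 is the mean of at least 2 runs.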
In general terms: Time-resolved FRET reads energy transfer from a long-lived donor to a nearby acceptor.
Consider `NS(=O)(=O)c1cc(F)ccc1NS(=O)(=O)/C=C/c1ccc(Cl)cc1` [Example 22, 2-[[(E)-2-(4-Chlorophenyl)ethenyl]sulfonylamino]-5-fluoro-benzenesulfonamide], for which the half-maximal inhibitory concentration (IC50) worked out at 430 nM. This lies in the sub-micromolar range.

With `NS(=O)(=O)c1ccccc1NS(=O)(=O)c1ccccc1-c1ccc(Cl)c(Cl)c1` [Example 124, 2-(3,4-Dichlorophenyl)-N-(2-sulfamoylphenyl)benzenesulfonamide], the IC50 is 1300 nM. This IC50 is about 3-fold higher than that of the molecule before. `Cc1ccc(NS(=O)(=O)/C=C/c2ccc3ccccc3c2)c(S(N)(=O)=O)c1` [Example 96, 5-Methyl-2-[[(E)-2-naphthalen-2-ylethenyl]sulfonylamino]benzenesulfonamide] came in with an IC50 of 4800 nM.

For the molecule `N#Cc1ccc(/C=C/S(=O)(=O)Nc2ccc(F)cc2S(N)(=O)=O)cc1` [Example 31, 2-[[(E)-2-(4-Cyanophenyl)ethenyl]sulfonylamino]-5-fluoro-benzenesulfonamide], the midpoint of inhibition, the IC50, lay at 5700 nM. In turn, `NS(=O)(=O)c1ccccc1NS(=O)(=O)/C=C/c1ccccc1C(F)(F)F` [Example 104, 2-[[(E)-2-[2-(Trifluoromethyl)phenyl]ethenyl]sulfonylamino]benzenesulfonamide] registered an IC50 of 4600 nM. This IC50 and that of the molecule before are within 1.5-fold of each other.

In the case of `NS(=O)(=O)c1ccccc1NS(=O)(=O)c1ccc(Cl)s1` [Example 159, 5-Chloro-N-(2-sulfamoylphenyl)thiophene-2-sulfonamide], the half-inhibitory concentration (IC50) was determined as 3500 nM. Molecule `COc1ccc(Br)cc1/C=C/S(=O)(=O)Nc1cc(F)ccc1S(N)(=O)=O` [Example 26, 2-[[(E)-2-(5-Bromo-2-methoxy-phenyl)ethenyl]sulfonylamino]-4-fluoro-benzenesulfonamide] displayed a half-maximal inhibitory concentration (IC50) of 420 nM. Compared with the last molecule, the IC50 is about 8.3-fold lower.

Consider `NS(=O)(=O)c1ccccc1NS(=O)(=O)c1ccc(C2CCCCC2)cc1` [Example 128, 2-[(4-Cyclohexylphenyl)sulfonylamino]benzenesulfonamide], for which the IC50 was determined as 1700 nM.

Molecule `NS(=O)(=O)c1ccccc1NS(=O)(=O)c1ccc(OCc2cnc(Cl)s2)cc1` [Example 163, 2-[[4-[(2-Chlorol,3-thiazol-5-yl)methoxy]phenyl]sulfonylamino]benzenesulfonamide] returned a half-inhibitory concentration (IC50) of 460 nM. The molecule `NS(=O)(=O)c1ccc(F)cc1NS(=O)(=O)/C=C/c1ccc(Cl)cc1` [Example 78, 2-[[(E)-2-(4-Chlorophenyl)ethenyl]sulfonylamino]-4-fluoro-benzenesulfonamide] displayed a half-inhibitory concentration (IC50) of 350 nM. The molecule `NS(=O)(=O)c1ccccc1NS(=O)(=O)c1cccc(-c2cc(F)cc(F)c2)c1` [Example 114, 2-[[3-(3,5-difluorophenyl)phenyl]sulfonylamino]benzenesulfonamide] came in with a half-maximal inhibitory concentration (IC50) of 830 nM. `Cc1nnc(COc2ccc(NS(=O)(=O)CCc3ccc(Cl)cc3)c(S(N)(=O)=O)c2)o1` [Example 47, 2-[2-(4-Chlorophenyl)ethylsulfonylamino]-5-[(5-methyl-1,3,4-oxadiazol-2-yl)methoxy]benzenesulfonamide] yielded a half-inhibitory concentration (IC50) of 1600 nM. The molecule `NS(=O)(=O)c1cc(Br)ccc1NS(=O)(=O)c1cccc(-c2ccc(Cl)c(Cl)c2)c1` [Example 144, 5-Bromo-2-[[3-(3,4-dichlorophenyl)phenyl]sulfonylamino]benzenesulfonamide] had a half-inhibitory concentration (IC50) of 1100 nM.

Take `N#Cc1ccc(-c2cccc(S(=O)(=O)Nc3ccccc3S(N)(=O)=O)c2)cc1` [Example 117, 2-[[3-(4-Cyanophenyl)phenyl]sulfonylamino]benzenesulfonamide]: half-maximal inhibition (IC50) was put at 1300 nM. Turning to `NS(=O)(=O)c1cc(F)ccc1NS(=O)(=O)/C=C/c1ccc(Cl)c(Cl)c1` [Example 24, 2-[[(E)-2-(3,4-Dichlorophenyl)ethenyl]sulfonylamino]-5-fluoro-benzenesulfonamide], it took 300 nM to reach half-maximal inhibition (IC50). `COc1cc(Cl)ccc1CCS(=O)(=O)Nc1ccc(C)cc1S(N)(=O)=O` [Example 205, 2-(2-(4-Chloro-2-methoxyphenyl)ethylsulfonamido)-5-methylbenzenesulfonamide] came in with an IC50 of 560 nM. In turn, `NS(=O)(=O)c1ccccc1NS(=O)(=O)/C=C/c1cccc(C(F)(F)F)c1` [Example 192, (E)-2-(2-(3-(Trifluoromethyl)phenyl)vinylsulfonamido)benzenesulfonamide] gave an IC50 of 3200 nM. Molecule `NS(=O)(=O)c1cccc(F)c1NS(=O)(=O)/C=C/c1cccc(C(F)(F)F)c1` [Example 65, 3-Fluoro-2-[[(E)-2-[3-(trifluoromethyl)phenyl]ethenyl]sulfonylamino]-benzenesulfonamide] had an IC50 of 3800 nM. `NS(=O)(=O)c1c(F)cccc1NS(=O)(=O)/C=C/c1cccc(C(F)(F)F)c1` [Example 66, 2-Fluoro-6-[[(E)-2-[3-(trifluoromethyl)phenyl]ethenyl]sulfonylamino]-benzenesulfonamide] gave an IC50 of 6200 nM.

As to `Cc1ccc(NS(=O)(=O)CCc2ccc(Cl)cc2)c(S(N)(=O)=O)c1` [Example 45, 2-[2-(4-Chloro-phenyl)-ethanesulfonylamino]-5-methylbenzenesulfonamide], inhibition was half-maximal at 1300 nM (IC50).

With `NS(=O)(=O)c1ccccc1NS(=O)(=O)c1cccc(-c2ccc(F)cc2F)c1` [Example 143, 2-[[3-(2,4-Difluorophenyl)phenyl]sulfonylamino]benzenesulfonamide], the IC50 is 1100 nM. The molecule `NS(=O)(=O)c1ccccc1NS(=O)(=O)c1cccc(-c2ccc(Cl)c(Cl)c2)c1` [Example 174, 2-[[3-(3,4-Dichlorophenyl)phenyl]sulfonylamino]benzenesulfonamide] displayed a half-maximal inhibitory concentration (IC50) of 220 nM. In the case of `COc1ncc(-c2cccc(S(=O)(=O)Nc3ccccc3S(N)(=O)=O)c2)cc1Cl` [Example 169, 3-(5-Chloro-6-methoxy-pyridin-3-yl)-N-(2-sulfamoylphenyl)benzenesulfonamide], the midpoint of inhibition, the IC50, lay at 22 nM. With `CC(C)(C)C#Cc1ccc(CCS(=O)(=O)Nc2ccsc2S(N)(=O)=O)cc1` [Example 214, 3-{2-[4-(3,3-Dimethyl-but-1-ynyl)-phenyl]-ethanesulfonylamino}-thiophene-2-sulfonic acid amide], the IC50 is 1400 nM. This IC50 lies about 64-fold higher than the previous one. `COc1cc(Cl)ccc1CCS(=O)(=O)Nc1cc(C)ccc1S(N)(=O)=O` [Example 201, 2-(2-(4-Chloro-2-methoxyphenyl)ethylsulfonamido)-4-methylbenzenesulfonamide] yielded an IC50 of 720 nM.

Consider `NS(=O)(=O)c1cccc(F)c1NS(=O)(=O)/C=C/c1ccc(-c2ccccc2)cc1` [Example 59, 3-Fluoro-2-[[(E)-2-(4-phenylphenyl)ethenyl]sulfonylamino]benzenesulfonamide], for which it took 2300 nM to reach half-maximal inhibition (IC50). The same measure for `CC(C)(O)C#Cc1ccc(/C=C/S(=O)(=O)Nc2ccccc2S(N)(=O)=O)cc1` [Example 209, (E)-2-(2-(4-(3-Hydroxy-3-methylbut-1-ynyl)phenyl)vinylsulfonamido)benzenesulfonamide]: 220 nM; for `NS(=O)(=O)c1ccccc1NS(=O)(=O)c1ccc(Oc2ccc(Cl)cc2)cc1` [Example 175, 2-[[4-(4-Chlorophenoxy)phenyl]sulfonylamino]benzenesulfonamide]: 3700 nM. As for `N#Cc1ccc(S(N)(=O)=O)c(NS(=O)(=O)CCc2ccc(Cl)c(Cl)c2)c1` [Example 180, 4-Cyano-2-(2-(3,4-dichlorophenyl)ethylsulfonamido)benzenesulfonamide], half-maximal inhibition (IC50) was put at 1400 nM.

Molecule `NS(=O)(=O)c1ccc(F)cc1NS(=O)(=O)/C=C/c1ccc(-c2ccccc2)cc1` [Example 53, 4-Fluoro-2-[[(E)-2-(4-phenylphenyl)ethenyl]sulfonylamino]benzenesulfonamide] yielded a half-inhibitory concentration (IC50) of 160 nM. As for `CC(C)(C)C#Cc1ccc(CCS(=O)(=O)Nc2ccccc2S(N)(=O)=O)cn1` [Example 187, 2-(2-(6-(3,3-Dimethylbut-1-ynyl)pyridin-3-yl)ethylsulfonamido)benzenesulfonamide], the figure is 680 nM; as for `NS(=O)(=O)c1ccccc1NS(=O)(=O)c1cccc(Cl)c1F` [Example 148, 3-Chloro-2-fluoro-N-(2-sulfamoylphenyl)benzenesulfonamide], 380 nM. The same measure for `NS(=O)(=O)c1c(F)cccc1NS(=O)(=O)/C=C/c1ccc(C(F)(F)F)cc1` [Example 90, 2-Fluoro-6-[[(E)-2-[4-(trifluoromethyl)phenyl]ethenyl]sulfonylamino]-benzenesulfonamide]: 870 nM; for `COc1cc(Cl)ccc1CCS(=O)(=O)Nc1ccc(Cl)cc1S(N)(=O)=O` [Example 194, 5-Chloro-2-(2-(4-chloro-2-methoxyphenyl)ethylsulfonamido)benzenesulfonamide]: 1000 nM; for `CC(C)(O)C#Cc1ccc(CCS(=O)(=O)Nc2ccccc2S(N)(=O)=O)cc1` [Example 184, 2-(2-(4-(3-Hydroxy-3-methylbut-1-ynyl)phenyl)ethylsulfonamido)benzenesulfonamide]: 9600 nM. As for `NS(=O)(=O)c1c(NS(=O)(=O)CCc2ccc(Cl)c(Cl)c2)ccc2c1CCC2` [Example 236, 5-(2-(3,4-Dichlorophenyl)ethylsulfonamido)-2,3-dihydro-1H-indene-4-sulfonamide], the IC50 was found to be 4600 nM. `COc1ccccc1CCS(=O)(=O)Nc1cc(Cl)ccc1S(N)(=O)=O` [Example 227, 4-Chloro-2-(2-(2-methoxyphenyl)ethylsulfonamido)benzenesulfonamide]: half-maximal inhibition (IC50) required 1900 nM. The molecule `Cc1ccc(NS(=O)(=O)c2cccc(Cl)c2Cl)c(S(N)(=O)=O)c1` [Example 154, 2-(2,3-Dichloro-benzenesulfonylamino)-5-methyl-benzenesulfonamide] yielded an IC50 of 9300 nM. Molecule `NS(=O)(=O)c1ccccc1NS(=O)(=O)c1cccc(-c2cccc(C(F)(F)F)c2)c1` [Example 141, 2-[[3-[3-(Trifluoromethyl)phenyl]phenyl]sulfonylamino]benzenesulfonamide] had an IC50 of 3100 nM.
